{
  "source": "patent US20200296971A1",
  "about": "“COMPOSITIONS AND METHODS FOR DISPERSING BIOFILMS” (Texas State University, priority 2016, published 2020)",
  "key": {"[1]": {"test_system": "monoculture biofilm of Chromobacterium violaceum", "conditions": "0.5% boric acid, 2 hours, lightly shaken", "experimental": "Test of application: A 0.5% boric acid was injected into a bioreactor containing a monoculture biofilm of Chromobacterium violaceum. The bioreactor was left for 2 hours and lightly shaken."}, "[2]": {"test_system": "river water biofilm", "conditions": "0.5% boric acid, 60 seconds, FIG. 2B", "experimental": "To visualize biofilm dispersion a water sample from the sampling site was collected. A microscope slide was placed in 30 ml of river water to cultivate a biofilm. The biofilm was then viewed under a dark field microscope and a 0.5% concentration of boric acid was applied and left for 60 seconds. FIG. 2A depicts a photograph of a microscope slide of river water with biofilms."}, "[3]": {"test_system": "P. aeruginosa biofilms", "conditions": "24 h at 37 C", "experimental": "(§1) In most experiments, cultures were grown in 96-well polystyrene microtiter plates as this allowed different growth media and replicates to be tested using an automated plate reader. Growth of suspended (planktonic) bacteria could be measured by the turbidity in the individual microtiter plate chambers (referred to as wells). […] To test for dispersion, the planktonic populations and growth media were removed and replaced with water containing various concentrations of the test compound. Dispersion was observed by an increase in turbidity (due to release of bacteria from biofilms) over 20 minutes.\nExperiments were conducted in order to examine the ability of P. aeruginosa biofilms grown on different growth media to be dispersed by boric acid. Here, bacteria were grown for 24 h at 37 C on an orbital shaking plate in a microtiter plate. The media was removed and the adherent P. aeruginosa biofilms were exposed to boric acid, placed in a plate reader and turbidity measured following agitation."}, "[4]": {"test_system": "other organisms", "conditions": "FIG. 3"}, "[5]": {"test_system": "P. aeruginosa biofilms", "conditions": "FIG. 4, line B", "description": "To further study the mechanisms of boric acid-induced dispersion a collaboration with Dr. Karin Sauer, Binghamton University was initiated. […] FIG. 4 depicts a bar graph summarizing the results of experiments directed towards determining the ability of boric acid to disperse P. aeruginosa biofilms. The line designated as B is boric acid, D represents a positive control for dispersion and E a negative control."}, "[6]": {"test_system": "P. aeruginosa PAO-1", "conditions": "Luria Broth, R2A broth, Davis minimal media with 0, 0.5, 1.0, 1.5% boric acid, FIG. 3", "experimental": "as §1"}, "[7]": {"test_system": "P. aeruginosa biofilms", "experimental": "P. aeruginosa was grown as planktonic and biofilm populations in different growth media for 48-120 h. Antimicrobial agents were tested in different boric acid concentrations. Boric acid controls lacked the antimicrobial compounds. Initial planktonic growth and dispersion were measured as described previously. After dispersion, the disinfectant and boric acid compounds were removed, replaced with sterile growth medium, and growth monitored by being placed into the plate reader and monitoring an increase of turbidity over an 18-36 h period.\nExperiments were conducted in order to determine the ability of boric acid to enhance the antimicrobial action of betadine (poly(vinyl pyrrolidone) iodine). Betadine is commonly used as a disinfectant in clinical environments and the low concentration used (0.02% (w/v)) was chosen based on previous work as it has partial biofilm effectiveness. P. aeruginosa biofilms were grown for 2 and 5 days suspended above a shaking water bath. […] The media used consisted of artificial urine and artificial urine supplemented with 2 mM glucose (reflecting average urine chemistry in normal and diabetic patients). Davis minimal media (MM) and Luria-Bertani broth (LB) were used as representative minimal and rich media. Different biofilm incubation times were used as it is known that biofilm susceptibility to dispersion can increase with biofilm age.\nThe testing protocol involved the use of a 96-well microtiter plate and a programmable plate reader (Biotek Instruments). The plate reader was programmed for incubation at 37 C and would agitate the plate for 15 seconds prior to taking an absorbance reading of each well. Microtiter wells were partially filled (200 μl) with sterile growth media, then were inoculated with 2 μl of an overnight bacterial culture suspension. For each media and disinfection combination there were a minimum of two replicates as well as uninoculated wells (media without bacteria) to monitor contamination. The microtiter plates were covered with a lid and the sides sealed with Parafilm™ to prevent contamination. Plates were placed on a rack (above the water level) in a water bath, and incubated with shaking (150 rpm) for 2 and 5 days. Testing consisted of removing a plate from the incubator, placing in the plate reader for 30 minutes (allowing for evaporation of humidity) and reading the turbidity (evidence of planktonic growth). Culture media and planktonic cells were removed from the wells and 200-μl dispersant solution containing a mixture of boric acid and 0.02% (w/v) betadine suspended in PBS. Betadine was absent in the control samples. The microtiter plate was placed in the plate reader for 30 minutes (allowing for evaporation of humidity) and turbidity measurements taken (increased turbidity was evidence of biofilm dispersion). To measure biofilm survival, the plates were removed from the plate reader, the dispersant liquid removed, and replaced with sterile LB growth media. The plates were then placed in the plate reader and growth measured (increased turbidity) over a minimum 18 h period."}, "[8]": {"test_system": "Biofilms from a nearby river", "conditions": "river biofilm on stone, 5 minutes exposure, tested 0%, 0.25%, 0.5%, 1%, 2%, 3%", "quoted_text": "Biofilms are described on the surface of small (15 mm×15 mm) stone.\nBiofilms were exposed to various concentrations of Boric Acid. The concentrations used were 0%, 0.25%, 0.5%, 1%, 2%, 3%.\nOne stone was used per concentration and was measured and weighed for similarity. Each stone was rinsed with sterile H2O to remove any planktonic (not attached to biofilm) bacteria. Each stone was exposed to a known concentration for a time period of 5 minutes and then removed and placed into a separate vial containing 9 ml of sterile water. The vial with after treatment stone in sterile water was then sonicated for 60 seconds to remove any remaining biofilm to be quantified. Sonication served as a mechanical removal for any remaining biofilm.\nMedia was then placed in 30 C for 48 hrs and growth was quantified through counting colonies."}},
  "note": "Like-named read-outs stand apart in the source and are kept apart here.",
  "data": [
    {"smiles": "OB(O)O", "note": "[boric acid]", "values": [
      {"measurement": "removal of visible biofilm from bioreactor", "setting": "[1]", "result": "All visible biofilm was removed"},
      {"measurement": "biofilm dispersion seen under dark field microscope", "setting": "[2]", "result": "dispersed"},
      {"measurement": "boric acid concentration at which increased turbidity (evidence of dispersion) was seen", "setting": "[3]; Davis Minimal Media-grown biofilms", "result": 1.0, "unit": "%"},
      {"measurement": "dispersion (increased turbidity)", "setting": "[3]; LB-grown biofilms", "result": "no observable dispersion"},
      {"measurement": "boric acid concentration at which increased turbidity (evidence of dispersion) was seen", "setting": "[3]; R2A-grown biofilms", "result": 0.5, "unit": "%"},
      {"measurement": "concentration at which bacterial growth began to be inhibited", "setting": "[4]", "result": "≥ 1.5 % (w/v)"},
      {"measurement": "ability to disperse biofilms in flow cell", "setting": "[5]", "result": "verified the ability of boric acid to disperse P. aeruginosa biofilms"},
      {"measurement": "ability to grow in the presence of boric acid", "setting": "[6]", "result": "grew in the presence of boric acid"},
      {"measurement": "enhancement of betadine activity against older biofilms", "setting": "[7]; 5-day old PAO-1 biofilms grown in artificial urine, FIGS. 13 and 14, preliminary", "result": "does enhance the activity of betadine"},
      {"measurement": "regrowth after treatment", "setting": "[7]; 2 day old biofilms, artificial urine, boric acid without betadine, FIG. 6", "result": "growth did occur"},
      {"measurement": "effect of boric acid on betadine action", "setting": "[7]; artificial urine with glucose, FIG. 7", "result": "no effect"},
      {"measurement": "boric acid-induced toxicity", "setting": "[7]; at the concentrations listed, preliminary results", "result": "low level of boric acid-induced toxicity"},
      {"measurement": "betadine activity against biofilms in the presence of boric acid", "setting": "[7]; two-day biofilms, Davis Minimal Media and Luria-Bertani broth, FIGS. 9 and 11", "result": "enhanced"},
      {"measurement": "killing by boric acid treatment alone", "setting": "[7]; two-day biofilms, Davis Minimal Media and Luria-Bertani broth, FIGS. 10 and 12", "result": "did not kill P. aeruginosa"},
      {"measurement": "concentration producing the highest percent release of biofilm", "setting": "[8]", "result": "0.5 % (w/v)"}
    ]}
  ]
}
